# What was measured:
# cytochrome P450 = test: Toxicity of doxorubicin in vivo: content of cytochrome P450 in the liver; set-up: species or system rats
# Method: (§1) On the other hand the drop in benzo(a)pyrene hydroxylase activity is no more than 20% and the decrease in aldrin mono-oxygenase activity is reduced to 40%.
# (§2) A single dose (10 mg/kg) of a composition containing equal amounts by weight of doxorubicin and of para-(methoxyphenylacetyl)-dehydroalanine was injected into rats. A 60% increase in the minimum content of cytochrome P450, a 20% increase in the benzo(a)pyrene hydroxylase activity and a 5% decrease in the aldrin mono-oxygenase activity were observed.
# L311 leukaemia cells = test: Survival of rats inoculated with L311 leukaemia cells (Example 6); type: in vivo, LOU/2 strain; settings: doxorubicin alone, intraperitoneal
# Method: A pharmaceutical composition is prepared by mixing 4 g of para-(methoxyphenylacetyl)-dehydroalanine obtained according to Example 1 and 0.2 g of doxorubicin.
# One million L311 leukaemia cells are injected intraperitoneally into a group of six rats, LOU/2 strain, the mean body weight of the rats being 160 g. L311 leukaemia is a tumour transplantable in rats of strain LOU/2, the tumour being described in the article by C. Deckers, F. Mare, L. Deckers-Passeu and A. Trouet, Adriamycin Review, Part I, 1973, pages 79 to 86.
# 48 hours after this injection the pharmaceutical composition described above is administered to the rats, again intraperitoneally, in an amount of 105 mg per kg of rat.
# By way of comparison, a group of twelve similar rats to which one million L311 leukaemia cells have also been administered is subjected solely to intraperitoneal administration of doxorubicin 48 hours after the administration of the L311 leukaemia cells, and a group of twelve similar rats to which one million L311 leukaemia cells have also been administered is given no subsequent treatment whatsoever.
# [1] = test system: benzo(a)pyrene hydroxylase; test: Toxicity of doxorubicin in vivo: benzo(a)pyrene hydroxylase activity in the liver; set-up: species or system rats
# Method: as §1, §2
# [2] = test system: Taper Liver Tumor cancer cells; test: Taper Liver Tumor in mice, variation of the amount of S 86 (Example 3); type: in vivo, NMRI strain; settings: cyclophosphamide 80 mg/kg alone, i.p.
# Method: (§3) One million "Taper Liver Tumor" cancer cells are injected intraperitoneally into groups of twelve adult male mice, NMRI strain, the mice having a body weight of about 30 grams. 48 hours after this injection various pharmaceutical compositions according to the invention are administered, again intraperitoneally, to the mice, the amount of para-(methoxyphenylacetyl)-dehydroalanine present in the composition administered being varied, and compositions only containing cyclophosphamide also beino administered.
# (§4) Thereafter, three parameters are measured:
# (a) the variations of the mean weight of the mice on the fifth day after inoculation of the cancer tumour (V.M.W.)
# (§5) (b) the median survival of 12 mice treated with a pharmaceutical composition according to the invention or treated with cyclophosphamide alone (M.S.)
# (c) the prolongation of survival of the mice treated with a composition according to the invention relative to comparison mice treated with cyclophosphamide alone (P.S.).
# [3] = test system: Taper Liver Tumor cancer cells; test: Survival of mice inoculated with Taper Liver Tumor cells (Example 2); type: in vivo; settings: cyclophosphamide alone, intraperitoneal, 48 hours after cancer cells
# Method: A pharmaceutical composition is prepared by mixing 4 g of para-(methoxyphenylacetyl)-dehydroalanine obtained according to Example 1 and 3.2 g of cyclophosphamide.
# One million "Taper Liver Tumor" cancer cells are injected intraperitoneally into a group of 10 mice each weighing about 30 g. 48 hours after this injection, the pharmaceutical composition described above is administered again intraperitoneally, in an amount of 180 mg per kg of mouse.
# By way of comparison, a group of 10 similar mice to which likewise one million "Taper Liver Tumor" cancer cells have been administered is subjected solely to administration of cyclophosphamide, by intraperitoneal injection, 48 hours after administration of the cancer cells, and a group of 10 other similar mice, to which, again, one million "Taper Liver Tumor" cancer cells have been administered is not subjected to any further treatment whatsoever.
# [4] = test system: Taper Liver Tumor cancer cells; test: Taper Liver Tumor in mice, variation of the amount of cyclophosphamide (Example 4); type: in vivo, NMRI strain; settings: i.p.
# Method: as §3, with “cyclophosphamide” for “para-(methoxyphenylacetyl)-dehydroalanine”, “being” for “beino”
# as §4
# (a) the variation of the mean weight of the mice on the fifth day after inoculation of the cancer tumour (V.M.W.)
# as §5
# (c) the prolongation of survival of the mice treated with a composition according to the invention relative to comparison mice treated with the same dose of cyclophosphamide (P.S).
# aldrin mono-oxygenase = test: Toxicity of doxorubicin in vivo: aldrin mono-oxygenase activity in the liver; set-up: species or system rats; settings: rat
# Method: as §1, §2
# Solubility = type: physicochemical
# [5] = Lethal dose (LD50) in the mouse; settings: in vivo
# Description: The results obtained are listed in the table below, the para-(methoxyphenylacetyl)-dehydroalanine being referred to by the code S 86.
# [6] = single dose of doxorubicin 10 mg/kg, subcutaneous, rat liver
# [7] = cyclophosphamide 80 mg/kg alone
# [8] = cyclophosphamide 180 mg/kg alone
# [9] = cyclophosphamide 360 mg/kg alone
# [10] = cyclophosphamide 450 mg/kg alone
# [11] = cyclophosphamide 540 mg/kg alone
smiles,measurement,setting,value
COc1cccc2c1C(=O)c1c(O)c3c(c(O)c1C2=O)C[C@@](O)(C(=O)CO)C[C@@H]3O[C@H]1C[C@H](N)[C@H](O)[C@H](C)O1 [doxorubicin],reduction in the minimum content of cytochrome P450,cytochrome P450; [6],20%
same,first death after administration of the leukaemia cells,L311 leukaemia cells,sixteen
same,mean length of survival after administration of the leukaemia cells,L311 leukaemia cells; 48 hours after leukaemia cells,27.6 days
same,benzo(a)pyrene hydroxylase activity (in words),[1]; [6],a drop in benzo(a)pyrene hydroxylase activity
"O=P1(N(CCCl)CCCl)NCCCO1 (stereo not shown) [Cyclophosphamide, cyclophosphamide]",median survival (M.S.),[2],24 days
same,variation of the mean weight of the mice on the fifth day (V.M.W.),[2],-1
same,all die between (day of death),[3],twenty-second day and the twenty-fifth day
same,median survival (M.S.),[4]; [7],21 days
same,variation of the mean weight of the mice on the fifth day (V.M.W.),[4]; [7],-2.2
same,median survival (M.S.),[4]; [8],23 days
same,variation of the mean weight of the mice on the fifth day (V.M.W.),[4]; [8],-4.4
same,median survival (M.S.),[4]; [9],31 days
same,variation of the mean weight of the mice on the fifth day (V.M.W.),[4]; [9],-6.6
same,median survival (M.S.),[4]; [10],20 days
same,variation of the mean weight of the mice on the fifth day (V.M.W.),[4]; [10],-14
same,median survival (M.S.),[4]; [11],12 days
same,variation of the mean weight of the mice on the fifth day (V.M.W.),[4]; [11],-18.6
NCCS [cysteamine],protection against the effect of doxorubicin on the level of cytochrome P450,"cytochrome P450; rat, in vivo",does not protect
same,decrease in aldrin mono-oxygenase activity,aldrin mono-oxygenase,40%
same,drop in benzo(a)pyrene hydroxylase activity,"[1]; rat, in vivo",no more than 20%
"C=C(NC(=O)Cc1ccc(OC)cc1)C(=O)O [S 86, para-(methoxyphenylacetyl)-dehydroalanine]",solubility of the product,Solubility,low solubility
same,LD50,[5],> 400 mg/kg
